Data taken from EPA's ToxValDB 9.5 (doi:10.2903/j.efsa.2008.176r).
Converted amounts (≈) assume the structure as drawn.

Tests used:
[1] = tested on: Oryctolagus sp.; conditions: developmental; development
[2] = tested on: Daphnia magna; conditions: chronic/long-term; duration: 21 days; reproduction
[3] = tested on: Canidae; conditions: chronic; duration: 1 years; oral; Dog Other; histopathology: nonneoplastic
[4] = tested on: Tagia sp.
[5] = tested on: Hypoaspis aculeifer; conditions: chronic/long-term
[6] = tested on: Colinus virginianus; conditions: oral
[7] = tested on: Apis mellifera; conditions: acute; duration: 48 hours; oral; unspecified; mortality
[8] = tested on: Oncorhynchus mykiss
[9] = tested on: Rattus norvegicus; conditions: oral; for LD50: acute, mortality
[10] = tested on: Mus musculus; conditions: developmental; development
[11] = reproduction developmental, diet

In the case of `CC(C)(C)C(O)(CCc1ccc(Cl)cc1)Cn1cncn1` (stereo not drawn) [Tebuconazole], the NOEL [1] is reported as 10 mg/kg-day, the NOEC [2] is reported as 0.01 mg/L and the NOAEL [3] is reported as 3 mg/kg-day. For the same compound, the LC50 ([4]; acute, duration: 14 days, mortality) was 1380 mg/kg, the NOEC ([4]; chronic/long-term, duration: 8 weeks, reproduction) was 10 mg/kg and the NOEC [5] was 50 mg/kg. For the same compound, the LC50 ([6]; acute, diet, mortality) was over 703 mg/kg-day, the LD50 ([6]; acute, mortality) was 1990 mg/kg-day and the LOEL [6, 11] was 12.4 mg/kg-day. It also gave an NOEL [6, 11] of 5.8 mg/kg-day, an LD50 [7] of over 83 µg/piece and an LC50 ([8]; acute, duration: 96 hours, mortality) of 4.4 mg/L (≈ 14.3 µM). For the same compound, the NOEC ([8]; chronic/long-term, duration: 83 days, growth) was 0.012 mg/L, the LD50 [9] was 1700 mg/kg-day and the NOEL ([9]; reproduction developmental, diet, body weight) was 10 mg/kg-day. For the same compound, the LOAEL [10] was 10 mg/kg-day.
With `NC(Cc1ncn[nH]1)C(=O)O` (stereo not drawn) [1,2,4-Triazole-3-alanine] the LC50 ([6]; acute, diet, mortality) was over 1370 mg/kg-day and the LD50 [9] was over 5000 mg/kg-day.
